Experimental data taken from ChEMBL document CHEMBL1140111, “Potent, orally bioavailable delta opioid receptor agonists for the treatment of pain: discovery of N,N-diethyl-4-(5-hydroxyspiro[chromene-2,4'-piperidine]-4-yl)benzamide (ADL5859)” (J Med Chem, 2008).
pEC50, pIC50, pKi: −log10 of the molar value. Calls of active or inactive are those of the source. No cut-off for these calls is given here.

Tests used:
Mu-type opioid receptor [1] = target: T1, Mu-type opioid receptor (Homo sapiens, UniProt P35372); test: Displacement of [3H]diprenorphine from human mu opioid receptor in CHO cells at 10 uM; assay type: cell-based
[2] = target: T2, Kappa-type opioid receptor (Homo sapiens, UniProt P41145); test: Displacement of [3H]diprenorphine from human kappa opioid receptor in CHO cells at 10 uM; assay type: cell-based
[3] = target: T3, Delta-type opioid receptor (Homo sapiens, UniProt P41143); test: biochemical
Description: Displacement of [3H]diprenorphine from human delta opioid receptor in CHO cells

[4] = target: T3, Delta-type opioid receptor
Description: Agonist activity at human delta opioid receptor in CHO cells assessed as stimulation of [35S]GTPgammaS binding

[5] = target: Voltage-gated inwardly rectifying potassium channel KCNH2 (Homo sapiens, UniProt Q12809)
Description: Inhibition of human ERG channel in HEK293 cells by voltage-clamp method

[6] = Cmax in rat at 0.25 mg/kg, iv and 3.0 mg/kg, po; assay type: ADME, organism-based; conditions: in vivo
Rattus norvegicus [7] = test: Antidepressant activity in Sprague-Dawley rat assessed as decrease in immobility time at 3 mg/kg, po by forced swim test; assay type: functional, organism-based; parameters: dose 3 mg/kg
[8] = Metabolic stability in dog liver microsomes after 30 mins; assay type: ADME, Canis lupus familiaris, Microsome; conditions: read-out: Stability
[9] = Fraction unbound in human plasma at 2 uM; assay type: ADME, cell-free; conditions: read-out: PPB
[10] = Half life in dog at 3.0 mg/kg, po; assay type: ADME, organism-based, Canis lupus familiaris; parameters: dose 3 mg/kg, route oral; conditions: in vivo
[11] = Fraction unbound in rat plasma protein at 2 uM; assay type: ADME, cell-free; conditions: read-out: PPB
Rattus norvegicus [12] = test: Antihyperalgesic effect in rat assessed as reversal of Freund's complete adjuvant-induced paw pressure at 3 mg/kg, po in presence of naltrindole; assay type: functional, organism-based; parameters: dose 3 mg/kg
[13] = Half life in rat at 3.0 mg/kg, po; assay type: ADME, organism-based; parameters: dose 3 mg/kg, route oral; conditions: in vivo
[14] = Oral bioavailability in dog at 3 mg/kg; assay type: ADME, organism-based, Canis lupus familiaris; conditions: in vivo
Rattus norvegicus [15] = species: Rattus norvegicus; test: Antihyperalgesic effect in rat assessed as reversal of Freund's complete adjuvant-induced paw pressure after 60 mins; assay type: functional, organism-based
[16] = Volume of distribution at steady state in dog at 1 mg/kg, iv and 3.0 mg/kg, po; assay type: ADME, organism-based, Canis lupus familiaris; conditions: in vivo, read-out: Vdss
[17] = Oral bioavailability in rat at 3 mg/kg; assay type: ADME, organism-based; conditions: in vivo
Mus musculus [18] = test: Convulsion activity in mouse upto 1000 mg/kg, po; assay type: functional, organism-based; parameters: dose 1000 mg/kg
Rattus norvegicus [19] = species: Rattus norvegicus; test: Antihyperalgesic effect in rat assessed as reversal of Freund's complete adjuvant-induced paw pressure; assay type: functional
[20] = Volume of distribution at steady state in rat at 0.25 mg/kg, iv and 3.0 mg/kg, po; assay type: ADME, organism-based; conditions: in vivo, read-out: Vdss
[21] = Clearance in rat at 0.25 mg/kg, iv and 3.0 mg/kg, po; assay type: ADME, organism-based; conditions: in vivo
Liver microsomes [22] = test: Metabolic stability in human liver microsomes; assay type: ADME, Microsome
Rattus norvegicus [23] = test: Antidepressant activity in Sprague-Dawley rat assessed as increase in time spent swimming at 3 mg/kg, po in presence of naltrindole by forced swim test; assay type: functional, organism-based; parameters: dose 3 mg/kg
Rattus norvegicus [24] = species: Rattus norvegicus; test: Antihyperalgesic effect in rat assessed as reversal of Freund's complete adjuvant-induced paw pressure after 30 mins; assay type: functional, organism-based
[25] = Clearance in dog at 1 mg/kg, iv and 3.0 mg/kg, po; assay type: ADME, organism-based, Canis lupus familiaris; conditions: in vivo
Rattus norvegicus [26] = test: Antidepressant activity in Sprague-Dawley rat assessed as increase in time spent swimming at 3 mg/kg, po by forced swim test; assay type: functional, organism-based; parameters: dose 3 mg/kg
Rattus norvegicus [27] = test: Increase in stereotypic behavior in rat upto 1000 mg/kg, po; assay type: functional, organism-based; parameters: dose 1000 mg/kg
Liver microsomes [28] = test: Metabolic stability in rat liver microsomes; assay type: ADME, Microsome
Rattus norvegicus [29] = test: Increase in locomotory activity in rat upto 1000 mg/kg, po; assay type: functional, organism-based; parameters: dose 1000 mg/kg
[30] = Cmax in dog at 1 mg/kg, iv and 3.0 mg/kg, po; assay type: ADME, organism-based, Canis lupus familiaris; conditions: in vivo
Mus musculus [31] = test: Increase in stereotypic behavior in mouse upto 1000 mg/kg, po; assay type: functional, organism-based; parameters: dose 1000 mg/kg
Rattus norvegicus [32] = test: Toxicity in rat assessed as EEG disturbances at 10 mg/kg and 30 mg/kg, po; assay type: organism-based; conditions: in vivo
Mus musculus [33] = test: Increase in locomotory activity in mouse upto 1000 mg/kg, po; assay type: functional, organism-based; parameters: dose 1000 mg/kg
Rattus norvegicus [34] = test: Antihyperalgesic effect in rat assessed as reversal of Freund's complete adjuvant-induced paw pressure at 3 mg/kg, po; assay type: functional
[35] = Fraction unbound in dog plasma at 2 uM; assay type: ADME, cell-free, Canis lupus familiaris; conditions: read-out: PPB
Rattus norvegicus [36] = test: Convulsion activity in rat upto 1000 mg/kg, po; assay type: functional, organism-based; parameters: dose 1000 mg/kg
[37] = target: T2, Kappa-type opioid receptor; test: Displacement of [3H]diprenorphine from human kappa opioid receptor in CHO cells; assay type: cell-based
Mu-type opioid receptor [38] = target: T1, Mu-type opioid receptor; test: Displacement of [3H]diprenorphine from human mu opioid receptor in CHO cells; assay type: cell-based

Voltage-gated inwardly rectifying potassium channel KCNH2, sequence (Q12809 whole entry): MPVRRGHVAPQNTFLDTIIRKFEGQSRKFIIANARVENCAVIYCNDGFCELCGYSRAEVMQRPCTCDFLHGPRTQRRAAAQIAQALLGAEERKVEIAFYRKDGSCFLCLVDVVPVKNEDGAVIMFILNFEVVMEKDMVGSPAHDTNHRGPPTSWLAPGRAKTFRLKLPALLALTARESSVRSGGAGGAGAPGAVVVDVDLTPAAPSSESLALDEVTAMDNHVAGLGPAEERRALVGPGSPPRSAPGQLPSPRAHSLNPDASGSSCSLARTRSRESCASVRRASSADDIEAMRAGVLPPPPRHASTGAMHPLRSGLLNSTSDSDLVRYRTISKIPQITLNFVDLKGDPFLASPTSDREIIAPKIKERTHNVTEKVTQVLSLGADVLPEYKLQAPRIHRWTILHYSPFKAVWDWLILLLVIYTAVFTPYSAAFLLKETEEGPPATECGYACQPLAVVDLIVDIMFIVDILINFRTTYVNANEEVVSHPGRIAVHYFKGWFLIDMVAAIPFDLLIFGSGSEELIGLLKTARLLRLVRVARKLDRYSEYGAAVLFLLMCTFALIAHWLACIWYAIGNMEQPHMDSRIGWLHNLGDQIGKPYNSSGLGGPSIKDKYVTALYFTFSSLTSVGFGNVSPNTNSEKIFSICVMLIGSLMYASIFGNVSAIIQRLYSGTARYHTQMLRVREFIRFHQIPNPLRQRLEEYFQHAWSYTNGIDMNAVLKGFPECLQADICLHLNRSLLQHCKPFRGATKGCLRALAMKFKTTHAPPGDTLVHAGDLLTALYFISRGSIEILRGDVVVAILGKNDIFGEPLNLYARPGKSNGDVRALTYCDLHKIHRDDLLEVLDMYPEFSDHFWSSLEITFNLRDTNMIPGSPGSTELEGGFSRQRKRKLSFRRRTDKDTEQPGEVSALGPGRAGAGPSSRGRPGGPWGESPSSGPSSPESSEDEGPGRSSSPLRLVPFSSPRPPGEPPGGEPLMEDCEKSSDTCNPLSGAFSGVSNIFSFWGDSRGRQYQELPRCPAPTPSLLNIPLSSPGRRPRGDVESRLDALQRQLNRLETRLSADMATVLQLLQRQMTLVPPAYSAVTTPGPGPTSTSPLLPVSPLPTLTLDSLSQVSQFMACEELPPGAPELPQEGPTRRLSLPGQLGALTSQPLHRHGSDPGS
T3 sequence (P41143 whole entry): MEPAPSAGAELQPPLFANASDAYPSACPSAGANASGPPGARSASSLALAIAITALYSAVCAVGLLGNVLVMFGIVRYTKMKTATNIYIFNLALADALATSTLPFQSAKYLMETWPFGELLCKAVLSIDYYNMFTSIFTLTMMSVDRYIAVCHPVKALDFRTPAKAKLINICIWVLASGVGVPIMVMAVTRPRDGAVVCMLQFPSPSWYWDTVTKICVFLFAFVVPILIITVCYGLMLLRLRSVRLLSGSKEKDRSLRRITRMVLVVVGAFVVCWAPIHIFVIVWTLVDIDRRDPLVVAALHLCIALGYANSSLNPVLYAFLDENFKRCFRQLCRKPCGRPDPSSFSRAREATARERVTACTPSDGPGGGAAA
T1 sequence (P35372 whole entry): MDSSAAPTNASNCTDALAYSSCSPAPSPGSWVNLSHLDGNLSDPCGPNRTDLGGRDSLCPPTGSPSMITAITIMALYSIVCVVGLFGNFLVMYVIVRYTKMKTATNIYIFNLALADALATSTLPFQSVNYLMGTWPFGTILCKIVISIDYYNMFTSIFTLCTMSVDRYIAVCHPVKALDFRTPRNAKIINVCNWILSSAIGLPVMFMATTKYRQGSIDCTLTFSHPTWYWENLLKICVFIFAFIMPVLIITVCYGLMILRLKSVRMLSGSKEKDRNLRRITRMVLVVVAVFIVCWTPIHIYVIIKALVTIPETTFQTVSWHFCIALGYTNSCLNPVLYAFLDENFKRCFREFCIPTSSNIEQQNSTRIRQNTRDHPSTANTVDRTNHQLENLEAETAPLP
T2 sequence (P41145 whole entry): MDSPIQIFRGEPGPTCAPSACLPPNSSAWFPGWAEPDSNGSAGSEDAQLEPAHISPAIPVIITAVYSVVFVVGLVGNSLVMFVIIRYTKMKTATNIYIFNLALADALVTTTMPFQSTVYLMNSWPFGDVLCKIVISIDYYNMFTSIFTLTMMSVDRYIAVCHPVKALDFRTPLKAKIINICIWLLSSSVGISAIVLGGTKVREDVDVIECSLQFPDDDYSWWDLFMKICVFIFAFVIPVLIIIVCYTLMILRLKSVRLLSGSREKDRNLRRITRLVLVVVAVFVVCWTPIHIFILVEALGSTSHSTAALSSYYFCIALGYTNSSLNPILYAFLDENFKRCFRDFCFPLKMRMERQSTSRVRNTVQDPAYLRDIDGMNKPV

With COc1ccc(C2=CC3(CCNCC3)Oc3ccccc32)cc1 the inhibition (Mu-type opioid receptor [1]) was 42% and the inhibition [2] was 42%.
Compound CCN(CC)C(=O)c1ccccc1C1=CC2(CCNCC2)Oc2ccccc21 has an inhibition (Mu-type opioid receptor [1]) of 12% and an inhibition [2] of 45%.
c1ccc(C2CC3(CCNCC3)Oc3ccccc32)cc1 (stereo not given) showed a pKi [3] of 6.80.
Compound O=C(O)c1ccc(C2=CC3(CCNCC3)Oc3ccccc32)cc1 has an inhibition (Mu-type opioid receptor [1]) of 13%, a pKi [3] of 7.96 and an inhibition [2] of 14%. It also gave a pEC50 [4] of 6.66.
Compound CCN(CC)C(=O)c1cccc(C2=CC3(CCNCC3)Oc3ccccc32)c1 has an inhibition (Mu-type opioid receptor [1]) of 12%, a pKi [3] of 6.48 and an inhibition [2] of 10%.
With Oc1ccc(C2=CC3(CCNCC3)Oc3ccccc32)cc1 the inhibition (Mu-type opioid receptor [1]) was 54%, the pKi [3] was 7.23 and the inhibition [2] was 58%. The pIC50 [5] was 6.19 and the pEC50 [4] was 6.66.
Work on Cc1ccc(C2=CC3(CCNCC3)Oc3ccccc32)cc1 yielded an inhibition (Mu-type opioid receptor [1]) of 49% and an inhibition [2] of 57%.
In the case of CCN(CC)C(=O)c1ccc(C2=CC3(CCNCC3)Oc3cccc(O)c32)cc1 [ADL-5859], the Cmax [6] was 117 nM, the inhibition (Mu-type opioid receptor [1]) was 32% and the Activity (Rattus norvegicus [7]) was “Active”. It also gave a remaining at 0.5 h [8] of 98.7%, a fraction unbound at 2 µM [9] of 0.419 and a half-life [10] of 4.7 h. The fraction unbound at 2 µM [11] was 0.159, the Activity (Rattus norvegicus [12]) was “inactive” and the half-life [13] was 5.3 h. The bioavailability [14] was 66.5%, the Activity (Rattus norvegicus [15]) was “Active” and the Vd [16] was 2.5 L/kg. For the same compound, the bioavailability [17] was 33.4%, the Activity (Mus musculus [18]) was “Non-toxic” and the ED50 (Rattus norvegicus [19]) was 1.4 mg/kg. For the same compound, the Vd [20] was 10.7 L/kg, the pKi [3] was 9.08 and the clearance [21] was 30 mL/min/kg. For the same compound, the Stability (Liver microsomes [22]) was 64.9%, the Activity (Rattus norvegicus [23]) was “inactive” and the inhibition [2] was 37%. The Activity (Rattus norvegicus [24]) was “Active”, the clearance [25] was 6.67 mL/min/kg and the Activity (Rattus norvegicus [26]) was “Active”. The pIC50 [5] was 4.11, the Activity (Rattus norvegicus [27]) was “Non-toxic” and the Stability (Liver microsomes [28]) was 69.2%. The Activity (Rattus norvegicus [29]) was “Non-toxic”, the Cmax [30] was 1730 nM and the Activity (Mus musculus [31]) was “Non-toxic”. The Activity (Rattus norvegicus [32]) was “Non-toxic”, the Activity (Mus musculus [33]) was “Non-toxic” and the Activity (Rattus norvegicus [34]) was 100%. The pEC50 [4] was 7.70, the fraction unbound at 2 µM [35] was 0.152 and the Activity (Rattus norvegicus [36]) was “Non-toxic”.
Work on O=S(=O)(Cc1ccc(Cl)cc1)N1CCC2(CC1)CC(c1ccccc1)c1ccccc1O2 (stereo not given) yielded a pKi [3] of 6.30.
CCN(CC)C(=O)c1ccc(C2=CC3(CCNCC3)Oc3ccc(O)cc32)cc1 showed an inhibition (Mu-type opioid receptor [1]) of 36%, a pKi [37] of 6.08 and a pKi [3] of 9.37. It also gave a pIC50 [5] of 4.70, an Activity (Rattus norvegicus [34]) of 35% and a pEC50 [4] of 8.85.
C=CCN1C[C@H](C)N([C@H](c2ccc(C(=O)N(CC)CC)cc2)c2cccc(OC)c2)C[C@H]1C showed an inhibition (Mu-type opioid receptor [1]) of 25% and an inhibition [2] of 28%.
Work on C=CCN1C[C@H](C)N([C@H](c2ccc(C(=O)N(CC)CC)cc2)c2cccc(O)c2)C[C@H]1C yielded a pKi [37] of 5.47, a pKi (Mu-type opioid receptor [38]) of 6.59 and a pKi [3] of 9.49. The pKi [2] was 6.89 and the pEC50 [4] was 9.40.
C1=C(c2ccccc2)c2ccccc2OC12CCNCC2 gave an inhibition (Mu-type opioid receptor [1]) of 42% and a pKi [37] of 5.47.
For COC(=O)c1ccc(C2=CC3(CCNCC3)Oc3ccccc32)cc1, the inhibition (Mu-type opioid receptor [1]) was 54% and the pKi [37] was 6.28.
In the case of CCN(CC)C(=O)c1ccc(C2=CC3(CCN(C(C)=O)CC3)Oc3ccccc32)cc1, the inhibition (Mu-type opioid receptor [1]) was 14%, the pKi [3] was 5.89 and the inhibition [2] was 2%. The pIC50 [5] was 4.32.
CCN(CC)C(=O)c1ccc(C2=CC3(CCNCC3)Oc3cc(O)ccc32)cc1 showed an inhibition (Mu-type opioid receptor [1]) of 35% and an inhibition [2] of 39%.
CCN1CCC2(C=C(c3ccc(C(=O)N(CC)CC)cc3)c3ccccc3O2)CC1 showed an inhibition (Mu-type opioid receptor [1]) of 13% and an inhibition [2] of 13%.
CCN(CC)C(=O)c1ccc(C2=CC3(CCN(C)CC3)Oc3ccccc32)cc1 gave an inhibition (Mu-type opioid receptor [1]) of 12%, a pKi [3] of 8.46 and an inhibition [2] of 24%. For the same compound, the pEC50 [4] was 7.05.
In the case of FC(F)(F)c1ccc(C2=CC3(CCNCC3)Oc3ccccc32)cc1, the inhibition (Mu-type opioid receptor [1]) was 42%, the pKi [37] was 5.70 and the pKi [3] was 6.82.
CCN(CC)C(=O)c1ccc(C2=CC3(CCNCC3)Oc3c(O)cccc32)cc1 showed an inhibition (Mu-type opioid receptor [1]) of 4%, a pKi [3] of 6.44 and an inhibition [2] of 28%.
For N#Cc1ccc(C2=CC3(CCNCC3)Oc3ccccc32)cc1, the inhibition (Mu-type opioid receptor [1]) was 60%, the pKi [3] was 7.74 and the inhibition [2] was 63%. For the same compound, the pEC50 [4] was 6.70.
